# Measurements published in patent publication US20200071361A1, “ENGINEERED ANTIMICROBIAL AMPHIPHILIC PEPTIDES AND METHODS OF USE” (priority 2017, published 2020).
# Columns and labels:
# Format in all cases: cell-based
# [1] = test system: Enterococcus faecalis ATCC 700802 (V583 VRE); test: Broth microdilution MIC (Table 2); details: read-out: MIC
# Procedure: (§1) Each peptide was formulated in PBS buffer prior to testing. Peptides of SEQ ID NO:5 and SEQ ID NO:8 were brought up in 100% DMSO with 0.002% polysorbate-80 at 1.28 mg/mL (40× the highest final test concentration of 32 mcg/mL). Final test concentration of DMSO was 2.5% in the assay at the first dilution for those two compounds.
# (§2) Mueller Hinton II broth (MHB II; BD; Lot Nos. 6258541 and 7143896) was used for MIC testing of aerobic organisms. 0.002% polysorbate 80 (P80) was added to the test medium.
# (§3) MIC values were determined using a broth microdilution procedure described by CLSI (1, 3). Automated liquid handlers (Multidrop 384, Labsystems, Helsinki, Finland; Biomek 2000 and Biomek FX, Beckman Coulter, Fullerton Calif.) were used to conduct serial dilutions and liquid transfers.
# (§4) To prepare the drug mother plates, which would provide the serial peptide dilutions for the replicate daughter plates, the wells of columns 2-12 of standard 96-well microdilution plates (Costar 3795) were filled with 150 μl of the designated diluent for each row of peptide. The test articles and comparator compounds (300 μl at 40× the highest concentration to be tested) were dispensed into the appropriate wells in column 1. The Biomek 2000 was then used to make 2-fold serial dilutions in the mother plates from column 1 through column 11. The wells of Column 12 contained no drug and served as the organism growth control wells for the assay.
# (§5) The daughter plates were loaded with 185 μL per well of MHB II using the Multidrop 384. The daughter plates were completed on the Biomek FX instrument which transferred 5 uL of peptide solution from each well of a mother plate to the corresponding well of each daughter plate in a single step. A standardized inoculum of each test organism was prepared per CLSI methods. The inoculum for each organism was dispensed into sterile reservoirs divided by length (Beckman Coulter), and the Biomek 2000 was used to inoculate the plates. Daughter plates were placed on the Biomek 2000 work surface in reverse orientation so that inoculation took place from low to high drug concentration. The plates were then inoculated with 10 μL of the inoculum resulting in a final cell density of approximately 5×10^5 CFU/mL, per well.
# (§6) Plates were stacked 3-4 high, covered with a lid on the top plate, placed in plastic bags, and incubated at 35° C. for 16 to 20 hrs. Following incubation, the microplates were removed from the incubator and viewed from the bottom using a plate viewer. […] The MIC was read and recorded as the lowest concentration of peptide that inhibited visible growth of the organism.
# [2] = test system: Pseudomonas aeruginosa ATCC 27853 (non-MDR; QC); test: Broth microdilution MIC (Table 2); details: ATCC27853, read-out: MIC
# Procedure: as §1, §2, §3, §4, §5, §6
# [3] = test system: Pseudomonas aeruginosa ATCC BAA-2109 (MDR); test: Broth microdilution MIC (Table 2); details: ATCCBAA2109
# Procedure: as §1, §2, §3, §4, §5, §6
# [4] = test system: Staphylococcus aureus NRS382 (USA100; HA-MRSA); test: Broth microdilution MIC (Table 2); details: read-out: MIC
# Procedure: as §1, §2, §3, §4, §5, §6
# [5] = test system: Streptococcus agalactiae ATCC 13813; test: Broth microdilution MIC (Table 2); details: ATCC13813, read-out: MIC
# Procedure: as §1, §2, §3, §4, §5, §6
# [6] = test system: Acinetobacter spp. isolates (n = 104); test: Broth microdilution MIC, clinical isolate panel; details: Acinetobacter spp. (n = 104)
# Procedure: (§7) Comparator antibiotics were supplied by Micromyx, and stock solutions were prepared on the first day of testing using solvents recommended by CLSI (1). Stock solutions of all compounds were made at 40× the final testing concentration and stored at −80° C. prior to testing. Information regarding compound source, catalog and lot number, testing concentrations and drug diluent for the comparators and test agent are detailed below in Table 3.
# (§8) The test organisms evaluated in this study consisted of clinical isolates from the Micromyx Repository and reference isolates from the American Type Culture Collection (ATCC; Manassas, Va.). The clinical isolates were obtained from USA hospitals. Upon initial receipt at Micromyx, the organisms were sub-cultured onto an appropriate agar medium. Following incubation, colonies were harvested from these plates and cell suspensions prepared and frozen at −80° C. with a cryoprotectant. Prior to testing, the isolates were streaked from frozen vials onto Trypticase Soy Agar with 5% sheep blood (Becton Dickenson [BD]; Sparks, Md.; Lot Nos. 7173618, 7166759, 7208688, 72144895, 7228505 and Remel Lenexa, Kans. Lot No. 212574). Plates were incubated at 35° C. overnight.
# (§9) Mueller Hinton II broth (MHB II; BD; Lot Nos. 6258541 and 7143896) was used for MIC testing of aerobic organisms.
# as §3
# as §4, with “drug” for “peptide”, “drug.” for “peptide.”
# as §5, with “µL” for “uL”, “drug” for “peptide”, “methods (1).” for “methods.”, “concentration.” for “concentration. The plates were then inoculated with 10 μL of the inoculum resulting in a final cell density of approximately 5×10^5 CFU/mL, per well.”
# as §6, with “drug” for “peptide”
# (§10) Clinical breakpoints to determine percent resistance within a given organism group were obtained from CLSI (3), with the exception of colistin for K. pneumoniae, Enterobacter spp., and E. coli, which are only available from EUCAST.
# [7] = test system: Escherichia coli isolates (n = 101); test: Broth microdilution MIC, clinical isolate panel; details: Escherichia coli (n = 101)
# Procedure: as §7, §8, §9, §3
# as §4, with “drug” for “peptide”, “drug.” for “peptide.”
# as §5, with “µL” for “uL”, “drug” for “peptide”, “methods (1).” for “methods.”, “concentration.” for “concentration. The plates were then inoculated with 10 μL of the inoculum resulting in a final cell density of approximately 5×10^5 CFU/mL, per well.”
# as §6, with “drug” for “peptide”
# as §10
# [8] = test system: Klebsiella pneumoniae isolates (n = 101); test: Broth microdilution MIC, clinical isolate panel; details: Klebsiella pneumoniae (n = 101)
# Procedure: as §7, §8, §9, §3
# as §4, with “drug” for “peptide”, “drug.” for “peptide.”
# as §5, with “µL” for “uL”, “drug” for “peptide”, “methods (1).” for “methods.”, “concentration.” for “concentration. The plates were then inoculated with 10 μL of the inoculum resulting in a final cell density of approximately 5×10^5 CFU/mL, per well.”
# as §6, with “drug” for “peptide”
# as §10
# [9] = test system: Pseudomonas aeruginosa isolates (n = 109); test: Broth microdilution MIC, clinical isolate panel; details: Pseudomonas aeruginosa
# Procedure: as §7, §8, §9, §3
# as §4, with “drug” for “peptide”, “drug.” for “peptide.”
# as §5, with “µL” for “uL”, “drug” for “peptide”, “methods (1).” for “methods.”, “concentration.” for “concentration. The plates were then inoculated with 10 μL of the inoculum resulting in a final cell density of approximately 5×10^5 CFU/mL, per well.”
# as §6, with “drug” for “peptide”
# as §10
# [10] = test system: Staphylococcus aureus isolates (n = 104); test: Broth microdilution MIC, clinical isolate panel; details: Staphylococcus aureus (n = 104), all methicillin-resistant
# Procedure: as §7, §8, §9, §3
# as §4, with “drug” for “peptide”, “drug.” for “peptide.”
# as §5, with “µL” for “uL”, “drug” for “peptide”, “methods (1).” for “methods.”, “concentration.” for “concentration. The plates were then inoculated with 10 μL of the inoculum resulting in a final cell density of approximately 5×10^5 CFU/mL, per well.”
# as §6, with “drug” for “peptide”
# as §10
smiles,measurement,setting,value
C[C@H]1COc2c(N3CCN(C)CC3)c(F)cc3c(=O)c(C(=O)O)cn1c23 [Levofloxacin],MIC,[1],0.5 µg/mL
same,MIC,[2],1 µg/mL
same,MIC,[3],1 µg/mL
same,MIC,[4],8 µg/mL
same,MIC,[5],0.5 µg/mL
same,MIC50,[6],8 µg/mL
same,"% R (percent of isolates resistant, clinical breakpoints)",[7],~50%
same,MIC50,[7],4 µg/mL
same,"% R (percent of isolates resistant, clinical breakpoints)",[8],over 60%
same,MIC50,[9],1 µg/mL
same,MIC,[9]; read-out: Mode (MIC),0.25 µg/mL
same,"% R (percent of isolates resistant, clinical breakpoints)",[10],Over 80%
same,MIC50,[10],8 µg/mL
